# Results as given in ChEMBL document CHEMBL3758129, “Design, synthesis and anti-HIV evaluation of novel diarylpyridine derivatives targeting the entrance channel of NNRTI binding pocket” (Eur J Med Chem, 2016).
# Columns and labels:
# [1] = Selectivity index, ratio of CC50 for human MT4 cells to EC50 for wild type HIV2 ROD infected in human MT4 cells; format: toxicity, cell-based; conditions: read-out: Ratio CC50/EC50
# [2] = test system: Human immunodeficiency virus 2; test: Antiviral activity against wild type HIV2 ROD infected in human MT4 cells assessed as reduction of virus-induced cytopathic effect after 5 days by MTT assay; format: functional, organism-based; conditions: Human immunodeficiency virus 2, ISOLATE ROD, MT4, 120 h
# [3] = Cytotoxicity against human MT4 cells assessed as reduction in viability of mock infected cells after 5 days MTT assay; format: cell-based
# [4] = test system: Human immunodeficiency virus 1; test: Antiviral activity against wild type HIV1 3B infected in human MT4 cells assessed as reduction of virus-induced cytopathic effect after 5 days by MTT assay; format: functional, organism-based; conditions: Human immunodeficiency virus 1, 3B, MT4, 120 h
# [5] = Selectivity index, ratio of CC50 for human MT4 cells to EC50 for wild type HIV1 3B infected in human MT4 cells; format: toxicity, cell-based; conditions: read-out: Ratio CC50/EC50
# [6] = target: Human immunodeficiency virus type 1 reverse transcriptase (Human immunodeficiency virus 1, UniProt Q72547); test: Inhibition of HIV1 reverse transcriptase assessed as reduction in biotin-dUTP incorporation using poly(rA)-oligo(dT) as template/primer and digoxigenin-dUTP/biotin-dUTP/dTTP nucleotides incubated for 1 hr by ELISA
# [7] = test system: Human immunodeficiency virus 1; test: Antiviral activity against HIV1 3B expressing reverse transcriptase E138K mutant infected in human MT4 cells assessed as reduction of virus-induced cytopathic effect after 5 days by MTT assay; format: functional, organism-based; conditions: Human immunodeficiency virus 1, 3B, MT4, 120 h
# [8] = test system: Human immunodeficiency virus 1; test: Antiviral activity against HIV1 3B expressing reverse transcriptase Y188L mutant infected in human MT4 cells assessed as reduction of virus-induced cytopathic effect after 5 days by MTT assay; format: functional, organism-based; conditions: Human immunodeficiency virus 1, 3B, MT4, 120 h
# [9] = test system: Human immunodeficiency virus 1; test: Antiviral activity against HIV1 3B expressing reverse transcriptase Y181C mutant infected in human MT4 cells assessed as reduction of virus-induced cytopathic effect after 5 days by MTT assay; format: functional, organism-based; conditions: Human immunodeficiency virus 1, 3B, MT4, 120 h
# [10] = test system: Human immunodeficiency virus 1; test: Antiviral activity against HIV1 […] expressing reverse transcriptase F227L/V106A double mutant infected in human MT4 cells assessed as reduction of virus-induced cytopathic effect after 5 days by MTT assay; format: functional, organism-based; conditions: Human immunodeficiency virus 1, MT4, 120 h
# [11] = test system: Human immunodeficiency virus 1; test: Antiviral activity against HIV1 3B expressing reverse transcriptase L100I mutant infected in human MT4 cells assessed as reduction of virus-induced cytopathic effect after 5 days by MTT assay; format: functional, organism-based; conditions: Human immunodeficiency virus 1, 3B, MT4, 120 h
# [12] = test system: Human immunodeficiency virus 1; test: Antiviral activity against HIV1 3B expressing reverse transcriptase K103N mutant infected in human MT4 cells assessed as reduction of virus-induced cytopathic effect after 5 days by MTT assay; format: functional, organism-based; conditions: Human immunodeficiency virus 1, 3B, MT4, 120 h
# [13] = test system: Human immunodeficiency virus 1; test: Antiviral activity against HIV1 RES056 infected in human MT4 cells assessed as reduction of virus-induced cytopathic effect after 5 days by MTT assay; format: functional, organism-based; conditions: Human immunodeficiency virus 1, RES056, MT4, 120 h
# [14] = test system: Human immunodeficiency virus 1; test: Potency index, ratio of delavirdine EC50 to compound EC50 for antiviral activity against HIV1 3B expressing reverse transcriptase K103N mutant infected in human MT4 cells; format: functional
# [15] = test system: Human immunodeficiency virus 1; test: Potency index, ratio of efavirenz EC50 to compound EC50 for antiviral activity against HIV1 3B expressing reverse transcriptase K103N mutant infected in human MT4 cells; format: functional
# [16] = test system: Human immunodeficiency virus 1; test: Potency index, ratio of nevirapine EC50 to compound EC50 for antiviral activity against HIV1 3B expressing reverse transcriptase K103N mutant infected in human MT4 cells; format: functional
smiles,measurement,setting,value
Cc1cc(C)c(Oc2cc(NCC3CC3)nc(Nc3ccc(C#N)cc3)c2)c(C)c1,selectivity ratio,[1],< 1
same,EC50,[2],> 13100 nM
same,CC50 at 120 h,[3],32900 nM
same,EC50,[4],1990 nM
same,selectivity ratio,[5],17
Cc1cc(C#N)cc(C)c1Oc1cc(NCCN(C)C)nc(Nc2ccc(C#N)cc2)c1,IC50,[6],3400 nM
same,selectivity ratio,[1],< 1
same,EC50,[2],> 1990 nM
same,CC50 at 120 h,[3],4670 nM
same,EC50,[4],41 nM
same,selectivity ratio,[5],114
Cc1cc(C)c(Oc2cc(NCC3CCCO3)nc(Nc3ccc(C#N)cc3)c2)c(C)c1 (centres undefined),selectivity ratio,[1],< 1
same,EC50,[2],> 125000 nM
same,CC50 at 120 h,[3],> 292000 nM
same,EC50,[4],1790 nM
same,selectivity ratio,[5],> 163
COC(CNc1cc(Oc2c(C)cc(C#N)cc2C)cc(Nc2ccc(C#N)cc2)n1)OC,selectivity ratio,[1],< 1
same,EC50,[2],> 125000 nM
same,CC50 at 120 h,[3],> 282000 nM
same,EC50,[4],840 nM
same,selectivity ratio,[5],> 335
CC(C)Nc1cccnc1N1CCN(C(=O)c2cc3cc(NS(C)(=O)=O)ccc3[nH]2)CC1 [DELAVIRDINE],EC50,[7],43 nM
same,selectivity ratio,[1],733
same,EC50,[4],33 nM
same,selectivity ratio,[5],30.4
same,EC50,[8],690 nM
same,EC50,[9],2030 nM
same,EC50,[10],1870 nM
same,EC50,[11],2100 nM
same,EC50,[12],2480 nM
Cc1ccnc2c1NC(=O)c1cccnc1N2C1CC1 [NEVIRAPINE],EC50,[4],260 nM
same,EC50,[8],9610 nM
same,EC50,[11],830 nM
COCCNc1cc(Oc2c(C)cc(C#N)cc2C)cc(Nc2ccc(C#N)cc2)n1,selectivity ratio,[1],< 1
same,EC50,[2],> 40700 nM
same,CC50 at 120 h,[3],≥ 98500 nM
same,EC50,[4],250 nM
same,selectivity ratio,[5],≥ 394
Cc1cc(C#N)cc(C)c1Oc1cc(Nc2ccc(C#N)cc2)nc(NC2CC2)c1,selectivity ratio,[1],< 1
same,EC50,[2],> 4060 nM
same,CC50 at 120 h,[3],10300 nM
same,EC50,[4],220 nM
same,selectivity ratio,[5],47
Cc1cc(C#N)cc(C)c1Oc1cc(NCCN2CCNCC2)nc(Nc2ccc(C#N)cc2)c1,selectivity ratio,[1],< 1
same,EC50,[2],> 2070 nM
same,CC50 at 120 h,[3],4430 nM
same,EC50,[4],430 nM
same,selectivity ratio,[5],10
Cc1cc(C)c(Oc2cc(NCCN3CCOCC3)nc(Nc3ccc(C#N)cc3)c2)c(C)c1,EC50,[7],4590 nM
same,selectivity ratio,[1],< 1
same,EC50,[13],8310 nM
same,EC50,[2],> 11100 nM
same,CC50 at 120 h,[3],24300 nM
same,EC50,[4],72 nM
same,selectivity ratio,[5],339
same,EC50,[8],9450 nM
same,EC50,[9],4930 nM
same,EC50,[10],4520 nM
same,EC50,[11],5800 nM
same,EC50,[12],140 nM
Cc1cc(C#N)cc(C)c1Oc1cc(NCC2CC2)nc(Nc2ccc(C#N)cc2)c1,selectivity ratio,[1],< 1
same,EC50,[2],> 125000 nM
same,CC50 at 120 h,[3],> 305000 nM
same,EC50,[4],1520 nM
same,selectivity ratio,[5],> 201
C=CCNc1cc(Oc2c(C)cc(C)cc2C)cc(Nc2ccc(C#N)cc2)n1,selectivity ratio,[1],< 1
same,EC50,[2],> 9330 nM
same,CC50 at 120 h,[3],24300 nM
same,EC50,[4],700 nM
same,selectivity ratio,[5],35
COCCNc1cc(Oc2c(C)cc(C)cc2C)cc(Nc2ccc(C#N)cc2)n1,selectivity ratio,[1],< 1
same,EC50,[2],> 22900 nM
same,CC50 at 120 h,[3],56600 nM
same,EC50,[4],870 nM
same,selectivity ratio,[5],65
O=C1Nc2ccc(Cl)cc2[C@@](C#CC2CC2)(C(F)(F)F)O1 [EFAVIRENZ],EC50,[8],340 nM
same,EC50,[9],6.8 nM
same,EC50,[10],210 nM
same,EC50,[11],100 nM
Cc1cc(C)c(Oc2cc(Nc3ccc(C#N)cc3)nc(NC3CC3)c2)c(C)c1,selectivity ratio,[1],< 1
same,EC50,[2],> 2580 nM
same,CC50 at 120 h,[3],6710 nM
same,EC50,[4],35 nM
same,selectivity ratio,[5],190
COC(CNc1cc(Oc2c(C)cc(C)cc2C)cc(Nc2ccc(C#N)cc2)n1)OC,selectivity ratio,[1],< 1
same,EC50,[2],> 14500 nM
same,CC50 at 120 h,[3],33500 nM
same,EC50,[4],1630 nM
same,selectivity ratio,[5],21
Cc1cc(C)c(Oc2cc(NCCN(C)C)nc(Nc3ccc(C#N)cc3)c2)c(C)c1,selectivity ratio,[1],< 1
same,EC50,[2],> 1940 nM
same,CC50 at 120 h,[3],4670 nM
same,EC50,[4],43 nM
same,selectivity ratio,[5],109
C=CCNc1cc(Oc2c(C)cc(C#N)cc2C)cc(Nc2ccc(C#N)cc2)n1,selectivity ratio,[1],< 1
same,EC50,[2],> 8770 nM
same,CC50 at 120 h,[3],22200 nM
same,EC50,[4],400 nM
same,selectivity ratio,[5],55
Cc1cc(C#N)cc(C)c1Oc1cc(NCC2CCCO2)nc(Nc2ccc(C#N)cc2)c1 (centres undefined),selectivity ratio,[1],< 1
same,EC50,[2],> 125000 nM
same,CC50 at 120 h,[3],> 285000 nM
same,EC50,[4],1320 nM
same,selectivity ratio,[5],> 216
Cc1cc(C#N)cc(C)c1Oc1cc(NCCC#N)nc(Nc2ccc(C#N)cc2)c1,EC50,[7],940 nM
same,selectivity ratio,[1],< 1
same,EC50,[13],11100 nM
same,EC50,[2],> 3210 nM
same,CC50 at 120 h,[3],7850 nM
same,EC50,[4],100 nM
same,selectivity ratio,[5],75
same,EC50,[8],> 7850 nM
same,EC50,[9],> 7850 nM
same,EC50,[10],> 7850 nM
same,EC50,[11],1340 nM
same,EC50,[12],180 nM
Cc1cc(C)c(Oc2cc(NCCC#N)nc(Nc3ccc(C#N)cc3)c2)c(C)c1,selectivity ratio,[1],< 1
same,EC50,[2],> 2100 nM
same,CC50 at 120 h,[3],5300 nM
same,EC50,[4],240 nM
same,selectivity ratio,[5],22
Cc1cc(C)c(Oc2cc(Cl)nc(Nc3ccc(C#N)cc3)c2)c(C)c1,selectivity ratio,[1],< 1
same,EC50,[2],> 2030 nM
same,CC50 at 120 h,[3],5590 nM
same,EC50,[4],370 nM
same,selectivity ratio,[5],15
Cc1cc(C#N)cc(C)c1Oc1cc(Cl)nc(Nc2ccc(C#N)cc2)c1,selectivity ratio,[1],< 1
same,EC50,[2],> 8550 nM
same,CC50 at 120 h,[3],22900 nM
same,EC50,[4],840 nM
same,selectivity ratio,[5],27
Cc1cc(C#N)cc(C)c1Oc1nc(Nc2ccc(C#N)cc2)nc(N)c1Br [ETRAVIRINE],EC50,[4],3.5 nM
same,EC50,[8],22 nM
same,EC50,[11],6.6 nM
same,EC50,[12],3.2 nM
Cc1cc(C)c(Oc2cc(NCCN3CCNCC3)nc(Nc3ccc(C#N)cc3)c2)c(C)c1,selectivity ratio,[1],< 1
same,EC50,[2],> 1650 nM
same,CC50 at 120 h,[3],3610 nM
same,EC50,[4],710 nM
same,selectivity ratio,[5],5
Cc1cc(C#N)cc(C)c1Oc1cc(NCCN2CCOCC2)nc(Nc2ccc(C#N)cc2)c1,EC50,[7],6410 nM
same,selectivity ratio,[1],< 1
same,EC50,[13],4720 nM
same,EC50,[2],> 17400 nM
same,CC50 at 120 h,[3],37200 nM
same,EC50,[4],82 nM
same,Ratio EC50,[14],50
same,Ratio EC50,[15],3
same,selectivity ratio,[5],451
same,EC50,[8],8100 nM
same,Ratio EC50,[16],140
same,EC50,[9],7550 nM
same,EC50,[10],6040 nM
same,EC50,[11],8460 nM
same,EC50,[12],49 nM
Cc1cn([C@H]2C[C@H](N=[N+]=[N-])[C@@H](CO)O2)c(=O)[nH]c1=O [ZIDOVUDINE],EC50,[7],13 nM
same,selectivity ratio,[1],> 1050
same,EC50,[4],6.7 nM
same,selectivity ratio,[5],> 7.06
same,EC50,[8],11 nM
same,EC50,[9],7.1 nM
same,EC50,[10],4.8 nM
same,EC50,[11],5.2 nM
same,EC50,[12],8.3 nM
